Test results from patent publication US12239635B2, “Treatment of cognitive disorders using nitazoxanide (NTZ), nitazoxanide (NTZ) analogs, and metabolites thereof” (The Trustees of Columbia University in the City of New York, priority 2018, dated 2025).

Assays:
[1] = literature (Stockis et al. and others); cited from earlier work
[2] = in vivo; conditions: Sprague Dawley, rat, po; for AUC(0-inf): AUC0-∞; for AUC(0-t): AUClast
Method: A pharmacokinetic experiment was performed to determine Tizoxanide (TIZ, active metabolite of Nitazoxanide, NTZ) in rat brain and plasma following oral administration to Sprague Dawley (SD) rat.
An Nitazoxanide (NTZ) pill (Alinia) solution was prepared at a concentration of 14.5 mg/mL (10.0 mg/mL as Nitazoxanide (NTZ) for oral administration (per os, PO), ad libitum, in a mixture of 0.5% methyl cellulose and 99.5% saline. The PO dosing volume was 10 mL/kg. SD rats (n=3 per time point; weighing 0.161 to 0.171 kg) were fasted and oral administration was given using a gavage needle. Blood samples were collected from jugular vein and brain tissues were sampled at 0.33, 1 and 4 hrs after oral administration. Blood samples were centrifuged immediately and a 100 ul aliquot of plasma, and the brain tissues were stored −20° C. until the analysis. The concentration of Nitazoxanide (NTZ) and Tizoxanide (TIZ) in plasma and brain were determined by HPLC/MS/MS analysis. An Agilent 1200 HPLC with Zorbax C18 column and an API4000 tandem quadrupole mass spectrometer were used. The molecular ions of Nitazoxanide (NTZ), Tizoxanide (TIZ) and an internal standard (Chlorzoxazone) were fragmented and detected by monitoring the transitions for each compound. Peak areas were integrated using Analyst software version 1.5.1. (Applied Biosystems). The quantifiable range was from 0.001 to 3 μg/ml for plasma and brain samples. Plasma or brain concentration-time profile for each rat was analyzed (WinNonlin 4.1 program) to obtain pharmacokinetic profile parameters.
(§1) wherein Cmax indicates maximum plasma concentration observed, Tmax indicates time to Cmax, AUClast indicates the Area Under the Curve from zero to the last time point, AUC0-∞ indicates the total area under the plasma concentration time curve from zero to infinity, and T1/2 indicates terminal elimination half-life. […] Brain/Plasma ratio was calculated using the formula: (Brain AUClast)/(Plasma AUClast).

[3] = in vivo; conditions: ICR, mouse, po; for AUC(0-inf): AUC0-∞; for AUC(0-t): AUClast
Method: as §1

[4] = active metabolite following oral administration of Nitazoxanide; cited from earlier work

With `O=C(Nc1ncc([N+](=O)[O-])s1)c1ccccc1O` [Tizoxanide (TIZ), Tizoxanide] as the molecule, how does the “Pharmacokinetic profile in humans” value [1] read?
The value was “excellent pharmacokinetic profiles”.

And the Tolerability in humans [1]?
Its Tolerability in humans is “well-tolerated”.

And the Brain/plasma ratio [2]?
The Brain/plasma ratio was 0.008.

What about the “Tmax, brain” value [2] of the same molecule?
The value was 0.53 ± 0.39 h.

What about the AUC(0-inf) ([2]; brain) of the same molecule?
The AUC(0-inf) was 62.8 ng·h/mL.

And the AUC(0-inf) ([2]; plasma)?
Its AUC(0-inf) is 5420 ng·h/mL.

And the AUC(0-t) ([2]; brain)?
The AUC(0-t) was 17.9 ± 14.6 ng·h/mL.

And the AUC(0-t) ([2]; plasma)?
Its AUC(0-t) is 2320 ± 603 ng·h/mL.

What about the half-life ([2]; T1/2, brain) of the same molecule?
Its half-life is 2.85 h.

What about the half-life ([2]; T1/2, plasma) of the same molecule?
Its half-life is 3.86 h.

And the Tmax ([2]; brain)?
Its Tmax is 0.55 h.

What about the Tmax ([2]; plasma) of the same molecule?
The Tmax was 0.39 h.

And the Brain/plasma ratio [3]?
The Brain/plasma ratio was 0.015.

And the “Cmax, plasma” value [3]?
Its value is 288.50 ± 227.73 ng/mL.

And the “Tmax, brain” value [3]?
Its value is 1.55 ± 2.12 h.

And the AUC(0-inf) ([3]; brain)?
The AUC(0-inf) was 9.06 ng·h/mL.

What about the AUC(0-inf) ([3]; plasma) of the same molecule?
The AUC(0-inf) was 1000 ng·h/mL.

What about the AUC(0-t) ([3]; brain) of the same molecule?
The AUC(0-t) was 7.18 ± 5.62 ng·h/mL.

What about the AUC(0-t) ([3]; plasma) of the same molecule?
Its AUC(0-t) is 485 ± 163 ng·h/mL.

What about the Cmax ([3]; Cmax, plasma) of the same molecule?
Its Cmax is 228 ng/mL.

And the half-life ([3]; T1/2, brain)?
The half-life was 1.15 h.

And the half-life ([3]; T1/2, plasma)?
The half-life was 3.8 h.

What about the Tmax ([3]; brain) of the same molecule?
The Tmax was 1.78 h.

And the Tmax ([3]; plasma)?
Its Tmax is 0.67 h.

And the Protein bound [4]?
Its Protein bound is 99%.

For `CC(=O)Oc1ccccc1C(=O)Nc1ncc([N+](=O)[O-])s1` [Nitazoxanide (NTZ), [2-[(5-nitro-1,3-thiazol-2-yl)carbamoyl]phenyl]ethanoate], which “Pharmacokinetic profile in humans” value [1] is on record?
Its value is “excellent pharmacokinetic profiles”.

And the Tolerability in humans [1]?
The Tolerability in humans was “well-tolerated”.

What about the Brain/plasma ratio [2] of the same molecule?
Its Brain/plasma ratio is 0.008.

And the Brain/plasma ratio [3]?
The Brain/plasma ratio was 0.015.

Which “Pharmacokinetic profile in humans” value [1] does the source give for `O=C(Nc1ncc([N+](=O)[O-])s1)c1ccccc1O[C@@H]1O[C@H](C(=O)O)[C@@H](O)[C@H](O)[C@H]1O` [Tizoxanide glucuronide (TIZ-G), Tizoxanide glucuronide] here?
Its value is “excellent pharmacokinetic profiles”.

What about the Tolerability in humans [1] of the same molecule?
The Tolerability in humans was “well-tolerated”.
